The values that follow are results of earlier work, collected in paper PMC6311893, “Computational prediction of plasma protein binding of cyclic peptides from small molecule experimental data using sparse modeling techniques” (BMC Bioinformatics, 2018).

One series has as its system plasma protein. The following applies: fraction bound to plasma protein; small molecule dataset, sheet 1-SM (Set Dte = test, Dtr = training); ref Ingle et al.; cited from earlier work.
`Cc1cccc(C)c1NC(=O)C1CCCCN1C` (centres unmarked) [Mepivacaine]: the “PPB (fb)” value is listed as 0.77. Consider `Sc1ncnc2nc[nH]c12` [Mercaptopurine], for which the “PPB (fb)” value is recorded as 0.17. Take `C[C@](N)(Cc1ccc(O)c(O)c1)C(=O)O` [Methyldopa]: the “PPB (fb)” value is 0.13. Consider `CCN(CC)CCNC(=O)c1cc(Cl)c(N)cc1OC` [Metoclopramide], for which the “PPB (fb)” value was 0.37. For `COCCc1ccc(OCC(O)CNC(C)C)cc1` (centres unmarked) [Metoprolol], the “PPB (fb)” value is on record as 0.11. `Cc1ncc([N+](=O)[O-])n1CCO` [Metronidazole]: the “PPB (fb)” value is recorded as 0.07. Consider `COCC(=O)O[C@]1(CCN(C)CCCc2nc3ccccc3[nH]2)CCc2cc(F)ccc2[C@@H]1C(C)C` [Mibefradil], for which the “PPB (fb)” value is recorded as 0.99.

For `O=C1c2c(O)ccc(O)c2C(=O)c2c(NCCNCCO)ccc(NCCNCCO)c21` [Mitoxantrone], the “PPB (fb)” value is 0.8. For the compound `CC(C)(O)c1ccccc1CC[C@@H](SCC1(CC(=O)O)CC1)c1cccc(/C=C/c2ccc3ccc(Cl)cc3n2)c1` [Montelukast], the “PPB (fb)” value is on record as 0.99. As to `Cc1ccc(NC(=O)c2ccc(CN3CCNCC3)cc2)cc1Nc1nccc(-c2cccnc2)n1` [N-desmethyl-imatinib], the “PPB (fb)” value is 0.7. On to `CCOc1ccc2ccccc2c1C(=O)N[C@@H]1C(=O)N2[C@@H]1SC(C)(C)[C@@H]2C(=O)O` [Nafcillin], for which the “PPB (fb)” value is reported as 0.88. For `CNS(=O)(=O)CCc1ccc2[nH]cc(C3CCN(C)CC3)c2c1` [Naratriptan], the “PPB (fb)” value is on record as 0.29.

Regarding `CCN[C@@H]1C[C@H](N)[C@@H](O[C@H]2OC(CN)=CC[C@H]2N)[C@H](O)[C@H]1O[C@H]1OC[C@](C)(O)[C@H](NC)[C@H]1O` [Netilmicin], the “PPB (fb)” value was 0.05.

Take `COc1ccc2[nH]c([S+]([O-])Cc3ncc(C)c(OC)c3C)nc2c1` (centres unmarked) [Omeprazole]: the “PPB (fb)” value is reported as 0.96.

The same series, now with this note: fraction bound to plasma protein; small molecule dataset, sheet 1-SM, Set Dtr; ref Ingle et al.; cited from earlier work.
On to `C[C@@H](O)[C@H]1C(=O)N2C(C(=O)O)=C(S[C@@H]3CN[C@H](C(=O)N(C)C)C3)[C@H](C)[C@H]12` [Meropenem], for which the “PPB (fb)” value is 0.08. Consider `COc1cccc(OC)c1C(=O)N[C@@H]1C(=O)N2[C@@H]1SC(C)(C)[C@@H]2C(=O)O` [Methicillin], for which the “PPB (fb)” value was 0.48. Turning to `CN(Cc1cnc2nc(N)nc(N)c2n1)c1ccc(C(=O)N[C@@H](CCC(=O)O)C(=O)O)cc1` [Methotrexate], the “PPB (fb)” value is reported as 0.58. Regarding `Cc1ccccc1N1C(=O)c2cc(S(N)(=O)=O)c(Cl)cc2NC1C` (centres unmarked) [Metolazone], the “PPB (fb)” value is recorded as 0.95. As for `CC(=O)Nc1c(I)c(C(=O)O)c(I)c(N(C)C(C)=O)c1I` [Metrizoate], the “PPB (fb)” value is recorded as 0. Regarding `Cc1cccc(C)c1OCC(C)N` (centres unmarked) [Mexiletine], the “PPB (fb)” value is given as 0.63. For the compound `CC1(C)S[C@@H]2[C@H](NC(=O)[C@H](NC(=O)N3CCN(S(C)(=O)=O)C3=O)c3ccccc3)C(=O)N2[C@H]1C(=O)O` [Mezlocillin], the “PPB (fb)” value is listed as 0.31. On to `Cc1[nH]c(=O)c(C#N)cc1-c1ccncc1` [Milrinone], for which the “PPB (fb)” value is 0.85.

For the compound `COc1cc2c(cc1OC)[C@@H](Cc1cc(OC)c(OC)c(OC)c1)[N+](C)(CCCOC(=O)CC/C=C/CCC(=O)OCCC[N+]1(C)CCc3cc(OC)c(OC)cc3[C@H]1Cc1cc(OC)c(OC)c(OC)c1)CC2` (some centres unmarked) [Mivacurium], the “PPB (fb)” value is 0.3.

Regarding `O=C(NCCN1CCOCC1)c1ccc(Cl)cc1` [Moclobemide], the “PPB (fb)” value was 0.36. For `CO[C@@]1(NC(=O)C(C(=O)O)c2ccc(O)cc2)C(=O)N2C(C(=O)O)=C(CSc3nnnn3C)CO[C@@H]21` (some centres unmarked) [Moxalactam], the “PPB (fb)” value is listed as 0.53. For `COc1c(N2C[C@@H]3CCCN[C@@H]3C2)c(F)cc2c(=O)c(C(=O)O)cn(C3CC3)c12` [Moxifloxacin], the “PPB (fb)” value is on record as 0.45. In the case of `COc1nc(C)nc(Cl)c1N=C1NCCN1` [Moxonidine], the “PPB (fb)” value was 0.06.

For the compound `C=C1CC[C@@]2(O)[C@H]3Cc4ccc(O)c5c4[C@@]2(CCN3CC2CC2)[C@H]1O5` [Nalmefene], the “PPB (fb)” value is listed as 0.36. Turning to `C=CCN1CC[C@]23c4c5ccc(O)c4O[C@H]2C(=O)CC[C@@]3(O)[C@H]1C5` [Naloxone], the “PPB (fb)” value is 0.45. Take `O=C1CC[C@@]2(O)[C@H]3Cc4ccc(O)c5c4[C@@]2(CCN3CC2CC2)[C@H]1O5` [Naltrexone]: the “PPB (fb)” value was 0.2. Turning to `CC(C)[C@H]1CC[C@H](C(=O)N[C@H](Cc2ccccc2)C(=O)O)CC1` [Nateglinide], the “PPB (fb)” value is 0.98. For the compound `CCc1nn(CCCN2CCN(c3cccc(Cl)c3)CC2)c(=O)n1CCOc1ccccc1` [Nefazodone], the “PPB (fb)” value is reported as 0.99.

In the case of `COc1nc(N)nc2c1ncn2[C@@H]1O[C@H](CO)[C@@H](O)[C@@H]1O` [Nelarabine], the “PPB (fb)” value is given as 0.2. For `Cc1ccnc2c1NC(=O)c1cccnc1N2C1CC1` [Nevirapine], the “PPB (fb)” value is on record as 0.64. Consider `O=C1CN(/N=C/c2ccc([N+](=O)[O-])o2)C(=O)N1` [Nitrofurantoin], for which the “PPB (fb)” value is recorded as 0.73. `CNC(=C[N+](=O)[O-])NCCSCc1csc(CN(C)C)n1` [Nizatidine]: the “PPB (fb)” value is on record as 0.32. For the compound `CN1Cc2c(N)cccc2C(c2ccccc2)C1` (centres unmarked) [Nomifensine], the “PPB (fb)” value is 0.63.

In the case of `CNCCC=C1c2ccccc2CCc2ccccc21` [Nortriptyline], the “PPB (fb)” value is listed as 0.91. Consider `Cc1nccn1CC1CCc2c(c3ccccc3n2C)C1=O` (centres unmarked) [Ondansetron], for which the “PPB (fb)” value is 0.73. With `Cc1onc(-c2ccccc2)c1C(=O)N[C@@H]1C(=O)N2[C@@H]1SC(C)(C)[C@@H]2C(=O)O` [Oxacillin], the “PPB (fb)” value is reported as 0.92. Turning to `CC(=O)O[C@H]1C(=O)[C@@]2(C)[C@H]([C@H](OC(=O)c3ccccc3)[C@]3(O)C[C@H](OC(=O)[C@H](O)[C@@H](NC(=O)c4ccccc4)c4ccccc4)C(C)=C1C3(C)C)[C@]1(OC(C)=O)CO[C@@H]1C[C@@H]2O` [Paclitaxel], the “PPB (fb)” value is 0.76.

On to `O=C1c2cccc3c2[C@H](CCC3)CN1[C@@H]1CN2CCC1CC2` [Palonosetron], for which the “PPB (fb)” value is 0.62. `COc1ccnc(C[S+]([O-])c2nc3ccc(OC(F)F)cc3[nH]2)c1OC` (centres unmarked) [Pantoprazole]: the “PPB (fb)” value was 0.98. Consider `Fc1ccc([C@@H]2CCNC[C@H]2COc2ccc3c(c2)OCO3)cc1` [Paroxetine], for which the “PPB (fb)” value was 0.94. In the case of `Nc1nc2c(ncn2CCC(CO)CO)c(=O)[nH]1` [Penciclovir], the “PPB (fb)” value is listed as 0.13. Regarding `CC1(C)S[C@@H]2[C@H](NC(=O)Cc3ccccc3)C(=O)N2[C@H]1C(=O)O` [Penicillin G], the “PPB (fb)” value is on record as 0.62.

In the case of `OCCN1CCN(CCCN2c3ccccc3Sc3ccc(Cl)cc32)CC1` [Perphenazine], the “PPB (fb)” value is listed as 0.92. As to `CCOc1ccc(NC(C)=O)cc1` [Phenacetin], the “PPB (fb)” value is given as 0.41. Take `CC(Oc1ccccc1)C(=O)N[C@@H]1C(=O)N2[C@@H]1SC(C)(C)[C@@H]2C(=O)O` (some centres unmarked) [Phenethicillin]: the “PPB (fb)” value was 0.75.

The same series, now with this note: fraction bound to plasma protein; small molecule dataset, sheet 1-SM; ref Ingle et al.; cited from earlier work.
For the compound `CC12CC3CC(C)(C1)CC(N)(C3)C2` [Memantine], the “PPB (fb)” value is listed as 0.45.

Consider `CCCCN1C[C@H](O)[C@@H](O)[C@H](O)[C@H]1CO` [Miglustat], for which the “PPB (fb)” value was 0.01.

`CC(=O)Oc1cc(C(C)C)c(OCCN(C)C)cc1C` [Moxisylyte]: the “PPB (fb)” value is given as 0.26. With `COc1c(C)c2c(c(O)c1C/C=C(\C)CCC(=O)OCCN1CCOCC1)C(=O)OC2` [Mycophenolate mofetil], the “PPB (fb)” value is 0.97. Take `CO[C@@H]1[C@@H](OC(N)=O)[C@@H](O)[C@H](Oc2ccc3c(O)c(NC(=O)c4ccc(O)c(CC=C(C)C)c4)c(=O)oc3c2C)OC1(C)C` [Novobiocin]: the “PPB (fb)” value is recorded as 0.9. Turning to `CN(C)CC(c1ccc(O)cc1)C1(O)CCCCC1` (centres unmarked) [O-desmethylvenlafaxine], the “PPB (fb)” value is recorded as 0.3. Turning to `CCCc1nc(C(C)(C)O)c(C(=O)O)n1Cc1ccc(-c2ccccc2-c2nnn[nH]2)cc1` [Olmesartan], the “PPB (fb)” value was 0.99.

Staying with this series, now noted: plasma; cited from earlier work.
For the compound `N[C@@H](Cc1ccc(N(CCCl)CCCl)cc1)C(=O)O` [Melphalan], the “PPB (fb)” value is 0.88. `CCOC(=O)C1(c2ccccc2)CCN(C)CC1` [Meperidine]: the “PPB (fb)” value was 0.58. On to `CCCC(C)(COC(N)=O)COC(N)=O` [Meprobamate], for which the “PPB (fb)” value was 0.1. `CCC1(c2cccc(O)c2)CCCCN(C)C1` (centres unmarked) [Meptazinol]: the “PPB (fb)” value is 0.27. Consider `CCC(=O)C(CC(C)N(C)C)(c1ccccc1)c1ccccc1` (centres unmarked) [Methadone], for which the “PPB (fb)” value was 0.84. For the compound `CN[C@@H](C)Cc1ccccc1` [Methamphetamine], the “PPB (fb)” value is 0.15.

With `C=CCC1(C(C)C#CCC)C(=O)N=C(O)N(C)C1=O` (centres unmarked) [Methohexital], the “PPB (fb)” value is on record as 0.75. For the compound `COC(=O)C(c1ccccc1)C1CCCCN1` (centres unmarked) [Methylphenidate], the “PPB (fb)” value was 0.18.

Regarding `COc1ccc2cc1Oc1cc3c(cc1OC)CC[N+](C)(C)[C@H]3Cc1ccc(cc1)Oc1c(OC)c(OC)cc3c1[C@@H](C2)[N+](C)(C)CC3` [Metocurine], the “PPB (fb)” value is 0.35. Regarding `Cc1ncc2n1-c1ccc(Cl)cc1C(c1ccccc1F)=NC2` [Midazolam], the “PPB (fb)” value is 0.97.

For `CN1CCC[C@H]1c1cccnc1` [Nicotine], the “PPB (fb)” value was 0.05. For the compound `O=C1CN=C(c2ccccc2)c2cc([N+](=O)[O-])ccc2N1` [Nitrazepam], the “PPB (fb)” value is given as 0.87. Regarding `COc1ccc2c3c1O[C@H]1C(=O)CC[C@@]4(O)[C@@H](C2)N(C)CC[C@]314` [Oxycodone], the “PPB (fb)” value is listed as 0.45. Take `COc1ccc(Cc2nccc3cc(OC)c(OC)cc23)cc1OC` [Papaverine]: the “PPB (fb)” value is 0.9. For `CC(C)=CCN1CCC2(C)c3cc(O)ccc3CC1C2C` (centres unmarked) [Pentazocine], the “PPB (fb)” value is given as 0.61.

Take `CCCC(C)C1(CC)C(=O)NC(=O)NC1=O` (centres unmarked) [Pentobarbital]: the “PPB (fb)” value was 0.56. In the case of `c1ccc(C2(N3CCCCC3)CCCCC2)cc1` [Phencyclidine], the “PPB (fb)” value was 0.68. For the compound `CCC1(c2ccccc2)C(=O)NC(=O)NC1=O` [Phenobarbital], the “PPB (fb)” value is reported as 0.43.
